The values below are quoted from earlier work in US7141532B2, “Process for the preparation of a dry pesticidal composition containing a dicarboxylate component” (Monsanto Technology LLC, priority 2002, dated 2006).

As to `O=C(O)C(=O)O` [Oxalic acid], the pK1 entry (first proton) is “about 1.25”. Also, the pK2 entry (second proton) was “about 4.29”.
